{"source": "PubChem BioAssay AID1963986", "about": "(Molecular Pharmacology Branch, DTP, NCI, 2024);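 also: spheroids exposed to compound for 7 days before viability read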;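 as to viability, T/C: 100% = DMSO vehicle-treated spheroids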", "test_system": "171881-019-R-J1-PDC tumor spheroid viability", "experiment": "Anticancer human tumor 171881-019-R-J1-PDC patient-derived invasive breast carcinoma cell line growth inhibition [PI3K]", "conditions": "spheroids with HUVEC and MSC; for IC50: curve of first compound; for viability, T/C: stronger effect = lower value", "method_in_brief": "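Combination activity was assessed by viability in multicellular tumor spheroids carrying HUVEC and MSC components. Agents were tested with PI3K inhibitors from a Cmax-based top dose (or 10 microM) downward in half-log increments.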", "data": [{"smiles": "Cn1cnc2c(F)c(Nc3ccc(Br)cc3Cl)c(C(=O)NOCCO)cc21", "note": "+ Cc1nc(NC(=O)N2CCCC2C(N)=O)sc1-c1ccnc(C(C)(C)C(F)(F)F)c1", "values": [{"measurement": "IC50", "setting": "second compound 0.0316 µM", "result": 0.437, "unit": "µM"}, {"measurement": "IC50", "setting": "second compound 0.1 µM", "result": 0.105, "unit": "µM"}, {"measurement": "IC50", "setting": "second compound 0.316 µM", "result": "< 0.00949", "unit": "µM"}, {"measurement": "IC50", "setting": "second compound 1 µM", "result": "< 0.00949", "unit": "µM"}, {"measurement": "IC50", "setting": "second compound 3.16 µM", "result": "< 0.00949", "unit": "µM"}, {"measurement": "IC50", "setting": "second compound 10 µM", "result": "< 0.00949", "unit": "µM"}, {"measurement": "viability, T/C", "setting": "second compound 0.0316 µM, first compound 0.00949 µM", "result": 92.1, "unit": "%"}, {"measurement": "viability, T/C", "setting": "second compound 0.0316 µM, first compound 0.03 µM", "result": 78.9, "unit": "%"}, {"measurement": "viability, T/C", "setting": "second compound 0.0316 µM, first compound 0.0949 µM", "result": 71.5, "unit": "%"}, {"measurement": "viability, T/C", "setting": "second compound 0.0316 µM, first compound 0.3 µM", "result": 58.5, "unit": "%"}, {"measurement": "viability, T/C", "setting": "second compound 0.0316 µM, first compound 0.949 µM", "result": 35.9, "unit": "%"}, {"measurement": "viability, T/C", "setting": "second compound 0.0316 µM, first compound 3 µM", "result": 16, "unit": "%"}, {"measurement": "viability, T/C", "setting": "second compound 0.1 µM, first compound 0.00949 µM", "result": 73.9, "unit": "%"}, {"measurement": "viability, T/C", "setting": "second compound 0.1 µM, first compound 0.03 µM", "result": 59, "unit": "%"}, {"measurement": "viability, T/C", "setting": "second compound 0.1 µM, first compound 0.0949 µM", "result": 50.3, "unit": "%"}, {"measurement": "viability, T/C", "setting": "second compound 0.1 µM, first compound 0.3 µM", "result": 41.8, "unit": "%"}, {"measurement": "viability, T/C", "setting": "second compound 0.1 µM, first compound 0.949 µM", "result": 26.8, "unit": "%"}, {"measurement": "viability, T/C", "setting": "second compound 0.1 µM, first compound 3 µM", "result": 12.4, "unit": "%"}, {"measurement": "viability, T/C", "setting": "second compound 0.316 µM, first compound 0.00949 µM", "result": 45.7, "unit": "%"}, {"measurement": "viability, T/C", "setting": "second compound 0.316 µM, first compound 0.03 µM", "result": 38.8, "unit": "%"}, {"measurement": "viability, T/C", "setting": "second compound 0.316 µM, first compound 0.0949 µM", "result": 33.3, "unit": "%"}, {"measurement": "viability, T/C", "setting": "second compound 0.316 µM, first compound 0.3 µM", "result": 28.6, "unit": "%"}, {"measurement": "viability, T/C", "setting": "second compound 0.316 µM, first compound 0.949 µM", "result": 15.1, "unit": "%"}, {"measurement": "viability, T/C", "setting": "second compound 0.316 µM, first compound 3 µM", "result": 5.7, "unit": "%"}, {"measurement": "viability, T/C", "setting": "second compound 1 µM, first compound 0.00949 µM", "result": 28.8, "unit": "%"}, {"measurement": "viability, T/C", "setting": "second compound 1 µM, first compound 0.03 µM", "result": 23.3, "unit": "%"}, {"measurement": "viability, T/C", "setting": "second compound 1 µM, first compound 0.0949 µM", "result": 19.9, "unit": "%"}, {"measurement": "viability, T/C", "setting": "second compound 1 µM, first compound 0.3 µM", "result": 15.1, "unit": "%"}, {"measurement": "viability, T/C", "setting": "second compound 1 µM, first compound 0.949 µM", "result": 6.73, "unit": "%"}, {"measurement": "viability, T/C", "setting": "second compound 1 µM, first compound 3 µM", "result": 2.34, "unit": "%"}, {"measurement": "viability, T/C", "setting": "second compound 3.16 µM, first compound 0.00949 µM", "result": 11.5, "unit": "%"}, {"measurement": "viability, T/C", "setting": "second compound 3.16 µM, first compound 0.03 µM", "result": 9.26, "unit": "%"}, {"measurement": "viability, T/C", "setting": "second compound 3.16 µM, first compound 0.0949 µM", "result": 7.86, "unit": "%"}, {"measurement": "viability, T/C", "setting": "second compound 3.16 µM, first compound 0.3 µM", "result": 5.01, "unit": "%"}, {"measurement": "viability, T/C", "setting": "second compound 3.16 µM, first compound 0.949 µM", "result": 1.92, "unit": "%"}, {"measurement": "viability, T/C", "setting": "second compound 3.16 µM, first compound 3 µM", "result": 0.87, "unit": "%"}, {"measurement": "viability, T/C", "setting": "second compound 10 µM, first compound 0.00949 µM", "result": 2.26, "unit": "%"}, {"measurement": "viability, T/C", "setting": "second compound 10 µM, first compound 0.03 µM", "result": 2.27, "unit": "%"}, {"measurement": "viability, T/C", "setting": "second compound 10 µM, first compound 0.0949 µM", "result": 1.71, "unit": "%"}, {"measurement": "viability, T/C", "setting": "second compound 10 µM, first compound 0.3 µM", "result": 0.92, "unit": "%"}, {"measurement": "viability, T/C", "setting": "second compound 10 µM, first compound 0.949 µM", "result": 0.78, "unit": "%"}, {"measurement": "viability, T/C", "setting": "second compound 10 µM, first compound 3 µM", "result": 0.48, "unit": "%"}]}]}
